Consider eight molecules from ChEMBL document CHEMBL4715735, “Sesquiterpenes from Inula japonica with Inhibitory Effects on Nitric Oxide Production in Murine Macrophage RAW 264.7 Cells” (J Nat Prod, 2016).

Molecules are shown by their SMILES. pIC50: −log10 of the molar value.

For this test, the system named is RAW264.7. The experiment in a line: Inhibition of LPS-induced NO production in mouse RAW264.7 cells incubated for 24 hrs by Griess reagent based assay. It is filed as functional, cell-based. To be noted: RAW264.7, 24 h. Background: Nitrite, measured by Griess reagent, commonly stands in for NO production.
As usually defined, the pIC50 is −log10 of the IC50, conventionally taken in molar units. Lower therefore signals a high IC50. Molecule `C=C1C(=O)O[C@H]2C[C@@H](C)[C@@H]3[C@@H](OC(C)=O)C[C@H](O)[C@]3(C)[C@@H](OC(C)=O)[C@H]12` gave a pIC50 of 5.49.

Consider `C=C1C(=O)O[C@H]2C[C@@H](C)[C@@H]3[C@@H](OC(C)=O)C[C@H](OC(C)=O)[C@@]3(C)[C@@H](O)[C@H]12`, for which the pIC50 was 5.60.

Molecule `C=C1C(=O)O[C@H]2C[C@H](C)[C@@H]3[C@@H](OC(C)=O)C[C@H](O)[C@@]3(C)C[C@H]12` showed a pIC50 of 5.55.

For `C=C1C(=O)O[C@@H]2CC(C)=C([C@@H](C)CCCOC(C)=O)[C@@H](OC(=O)C[C@H](C)CC)[C@H]12`, the pIC50 was 5.18.

As to `C=C1C(=O)O[C@H]2C[C@@H](C)[C@@H]3[C@H](OC(C)=O)C[C@H](O)[C@@]3(C)[C@@H](O)[C@H]12`, the pIC50 was 4.81.

For `COc1ccc2c(c1)c(CC(=O)O)c(C)n2C(=O)c1ccc(Cl)cc1` [INDOMETHACIN], the pIC50 is 4.94.

Regarding `C=C1C(=O)O[C@H]2C[C@@H](C)[C@@H]3CC[C@H](O)[C@@]3(C)C[C@H]12` [PSEUDOGUAIANOLIDE], the pIC50 is 5.60.

In turn, `C=C1C(=O)O[C@@H]2C[C@H](C)C(CCC(C)=O)=CC[C@H]12` [TOMENTOSIN] showed a pIC50 of 5.70.
